Patent US20090275594A1, “3-HYDRAZONE PIPERAZINYL RIFAMYCIN DERIVATIVES USEFUL AS ANTIMICROBIAL AGENTS” (priority 2008, published 2009)
Values after ≈ are worked out from the molar mass of the structure shown.

Experiments:
Assay type in all cases: cell-based
Conditions in all cases: cation adjusted Mueller-Hinton broth, 35° C., 16-20 hours
[1] = test system: Methicillin-resistant Staphylococcus aureus OC 3726 COL; test: In vitro antibacterial activity, microdilution broth MIC (NCCLS M7-A4), strain C
Method: (§1) Minimum inhibitory concentration (MIC) is an indicator of in vitro antibacterial activity. […] The in vitro antimicrobial activity of representative compounds of the present invention was determined by the microdilution broth method following the test method from the National Committee for Clinical Laboratory Standards (NCCLS). This method is described in the NCCLS Document M7-A4, Vol. 17, No. 2, “Methods for Dilution Antimicrobial Susceptibility Test for Bacteria that Grow Aerobically—Fourth Edition”, which is incorporated herein by reference.
(§2) In this method two-fold serial dilutions of drug in cation adjusted Mueller-Hinton broth were added to wells in microdilution trays. The test organisms were prepared by adjusting the turbidity of actively growing broth cultures so that the final concentration of test organism after it is added to the wells was approximately 5×10^4 CFU/well. Following inoculation of the microdilution trays, the trays were incubated at 35° C. for 16-20 hours and then read. The amount of growth in the wells containing the test compound was compared with the amount of growth in the growth-control wells (no test compound) used in each tray.

[2] = test system: Enterococcus faecium OC 3312 vancomycin-resistant; test: In vitro antibacterial activity, microdilution broth MIC (NCCLS M7-A4), strain A
Method: as §1, §2

[3] = test system: Staphylococcus aureus ATCC 29213; test: In vitro antibacterial activity, microdilution broth MIC (NCCLS M7-A4), strain B
Method: as §1, §2

[4] = test system: Staphylococcus aureus OC4172; test: In vitro antibacterial activity, microdilution broth MIC (NCCLS M7-A4), strain D
Method: as §1, §2

SMILES	MIC (μg/mL) C Strain [1]	MIC (μg/mL) A Strain [2] [µg/mL]	MIC (μg/mL) B Strain [3]	MIC (μg/mL) D Strain [4]
COC1C=COC2(C)Oc3c(C)c(O)c4c(O)c(c(C=NN5CCN(Cc6ccc(-c7ccc(Cl)cc7)s6)CC5)c(O)c4c3C2=O)NC(=O)C(C)=CC=CC(C)C(O)C(C)C(O)C(C)C(OC(C)=O)C1C (stereo not shown) [Compound 21]	2 µg/mL (≈ 1.97 µM)	2 (≈ 1.97 µM)	2 µg/mL (≈ 1.97 µM)	2 µg/mL (≈ 1.97 µM)
COC1C=COC2(C)Oc3c(C)c(O)c4c(O)c(c(C=NN5CCN(Cc6cn(-c7ccc(Cl)cc7)nn6)CC5)c(O)c4c3C2=O)NC(=O)C(C)=CC=CC(C)C(O)C(C)C(O)C(C)C(OC(C)=O)C1C (stereo not shown) [Compound 24]	≦0.12 μg/mL	0.12 (≈ 0.12 µM)	0.12 µg/mL (≈ 0.12 µM)	0.06 µg/mL (≈ 0.06 µM)
COC1C=COC2(C)Oc3c(C)c(O)c4c(O)c(c(C=NN5CCN(Cc6cc(-c7ccccn7)no6)CC5)c(O)c4c3C2=O)NC(=O)C(C)=CC=CC(C)C(O)C(C)C(O)C(C)C(OC(C)=O)C1C (stereo not shown) [Compound 13]	≦0.03 μg/mL	0.06 (≈ 0.062 µM)	≦0.03 μg/mL	≦0.03 μg/mL
COC1C=COC2(C)Oc3c(C)c(O)c4c(O)c(c(C=NN5CCN(Cc6cc(-c7cccnc7)no6)CC5)c(O)c4c3C2=O)NC(=O)C(C)=CC=CC(C)C(O)C(C)C(O)C(C)C(OC(C)=O)C1C (stereo not shown) [Compound 14]	≦0.03 μg/mL	0.06 (≈ 0.062 µM)	≦0.03 μg/mL	≦0.03 μg/mL
COC1C=COC2(C)Oc3c(C)c(O)c4c(O)c(c(C=NN5CCN(Cc6ccc(-c7ccccc7)s6)CC5)c(O)c4c3C2=O)NC(=O)C(C)=CC=CC(C)C(O)C(C)C(O)C(C)C(OC(C)=O)C1C (stereo not shown) [Compound 20]	1 µg/mL (≈ 1.02 µM)	2 (≈ 2.04 µM)	2 µg/mL (≈ 2.04 µM)	2 µg/mL (≈ 2.04 µM)
COC1C=COC2(C)Oc3c(C)c(O)c4c(O)c(c(C=NN5CCN(Cc6cc(CN(C)C)no6)CC5)c(O)c4c3C2=O)NC(=O)C(C)=CC=CC(C)C(O)C(C)C(O)C(C)C(OC(C)=O)C1C (stereo not shown) [Compound 12]	≦0.03 μg/mL	0.12 (≈ 0.127 µM)	0.06 µg/mL (≈ 0.0634 µM)	≦0.03 μg/mL
COC1C=COC2(C)Oc3c(C)c(O)c4c(O)c(c(C=NN5CCN(Cc6cc(C)no6)CC5)c(O)c4c3C2=O)NC(=O)C(C)=CC=CC(C)C(O)C(C)C(O)C(C)C(OC(C)=O)C1C (stereo not shown) [Compound 10]	≦0.03 μg/mL	0.06 (≈ 0.0664 µM)	≦0.03 μg/mL	≦0.03 μg/mL
COc1ccc(-c2cc(CN3CCN(N=Cc4c5c(O)c6c(O)c(C)c7c(c6c4O)C(=O)C(C)(OC=CC(OC)C(C)C(OC(C)=O)C(C)C(O)C(C)C(O)C(C)C=CC=C(C)C(=O)N5)O7)CC3)on2)cc1 (stereo not shown) [Compound 9]	0.12 µg/mL (≈ 0.12 µM)	0.25 (≈ 0.251 µM)	0.25 µg/mL (≈ 0.251 µM)	0.12 µg/mL (≈ 0.12 µM)
COC1C=COC2(C)Oc3c(C)c(O)c4c(O)c(c(C=NN5CCN(Cc6cc(-c7ccccc7)no6)CC5)c(O)c4c3C2=O)NC(=O)C(C)=CC=CC(C)C(O)C(C)C(O)C(C)C(OC(C)=O)C1C (stereo not shown) [Compound 1]	0.12 µg/mL (≈ 0.124 µM)	0.25 (≈ 0.259 µM)	0.12 µg/mL (≈ 0.124 µM)	0.12 µg/mL (≈ 0.124 µM)
COC1C=COC2(C)Oc3c(C)c(O)c4c(O)c(c(C=NN5CCN(Cc6cc(CO)no6)CC5)c(O)c4c3C2=O)NC(=O)C(C)=CC=CC(C)C(O)C(C)C(O)C(C)C(OC(C)=O)C1C (stereo not shown) [Compound 11]	≦0.03 μg/mL	0.25 (≈ 0.272 µM)	0.06 µg/mL (≈ 0.0652 µM)	≦0.03 μg/mL
COC(=O)c1c(-c2ccc(Cl)cc2)noc1CN1CCN(N=Cc2c3c(O)c4c(O)c(C)c5c(c4c2O)C(=O)C(C)(OC=CC(OC)C(C)C(OC(C)=O)C(C)C(O)C(C)C(O)C(C)C=CC=C(C)C(=O)N3)O5)CC1 (stereo not shown) [Compound 18]	0.5 µg/mL (≈ 0.472 µM)	1 (≈ 0.945 µM)	1 µg/mL (≈ 0.945 µM)	0.5 µg/mL (≈ 0.472 µM)
COC1C=COC2(C)Oc3c(C)c(O)c4c(O)c(c(C=NN5CCN(Cc6cc(-c7ccc(C)cc7)no6)CC5)c(O)c4c3C2=O)NC(=O)C(C)=CC=CC(C)C(O)C(C)C(O)C(C)C(OC(C)=O)C1C (stereo not shown) [Compound 8]	0.5 µg/mL (≈ 0.51 µM)	0.5 (≈ 0.51 µM)	0.5 µg/mL (≈ 0.51 µM)	0.5 µg/mL (≈ 0.51 µM)
COC1C=COC2(C)Oc3c(C)c(O)c4c(O)c(c(C=NN5CCN(Cc6cc(-c7ccc(Cl)cc7)no6)CC5)c(O)c4c3C2=O)NC(=O)C(C)=CC=CC(C)C(O)C(C)C(O)C(C)C(OC(C)=O)C1C (stereo not shown) [Compound 2]	0.5 µg/mL (≈ 0.5 µM)	1 (≈ 0.999 µM)	0.5 µg/mL (≈ 0.5 µM)	0.5 µg/mL (≈ 0.5 µM)
COC1C=COC2(C)Oc3c(C)c(O)c4c(O)c(c(C=NN5CCN(Cc6cc(-c7cccc(Cl)c7)no6)CC5)c(O)c4c3C2=O)NC(=O)C(C)=CC=CC(C)C(O)C(C)C(O)C(C)C(OC(C)=O)C1C (stereo not shown) [Compound 3]	0.5 µg/mL (≈ 0.5 µM)	0.5 (≈ 0.5 µM)	0.5 µg/mL (≈ 0.5 µM)	0.5 µg/mL (≈ 0.5 µM)
COC1C=COC2(C)Oc3c(C)c(O)c4c(O)c(c(C=NN5CCN(Cc6ccc(-c7ccccc7Cl)o6)CC5)c(O)c4c3C2=O)NC(=O)C(C)=CC=CC(C)C(O)C(C)C(O)C(C)C(OC(C)=O)C1C (stereo not shown) [Compound 22]	0.5 µg/mL (≈ 0.5 µM)	0.5 (≈ 0.5 µM)	0.5 µg/mL (≈ 0.5 µM)	0.25 µg/mL (≈ 0.25 µM)
COC1C=COC2(C)Oc3c(C)c(O)c4c(O)c(c(C=NN5CCN(Cc6cc(-c7ccc(NC(C)=O)cc7)no6)CC5)c(O)c4c3C2=O)NC(=O)C(C)=CC=CC(C)C(O)C(C)C(O)C(C)C(OC(C)=O)C1C (stereo not shown) [Compound 16]	0.06 µg/mL (≈ 0.0586 µM)	0.12 (≈ 0.117 µM)	0.06 µg/mL (≈ 0.0586 µM)	≦0.03 μg/mL
COC1C=COC2(C)Oc3c(C)c(O)c4c(O)c(c(C=NN5CCN(Cc6cc(-c7ccncc7)no6)CC5)c(O)c4c3C2=O)NC(=O)C(C)=CC=CC(C)C(O)C(C)C(O)C(C)C(OC(C)=O)C1C (stereo not shown) [Compound 15]	≦0.03 μg/mL	0.06 (≈ 0.062 µM)	≦0.03 μg/mL	≦0.03 μg/mL
COC1C=COC2(C)Oc3c(C)c(O)c4c(O)c(c(C=NN5CCN(Cc6cc(-c7ccc(OCCCN(C)C)cc7)no6)CC5)c(O)c4c3C2=O)NC(=O)C(C)=CC=CC(C)C(O)C(C)C(O)C(C)C(OC(C)=O)C1C (stereo not shown) [Compound 17]	0.12 µg/mL (≈ 0.112 µM)	0.25 (≈ 0.234 µM)	0.12 µg/mL (≈ 0.112 µM)	0.12 µg/mL (≈ 0.112 µM)
COC1C=COC2(C)Oc3c(C)c(O)c4c(O)c(c(C=NN5CCN(Cc6cc(-c7ccc(Cl)cc7Cl)no6)CC5)c(O)c4c3C2=O)NC(=O)C(C)=CC=CC(C)C(O)C(C)C(O)C(C)C(OC(C)=O)C1C (stereo not shown) [Compound 4]	0.5 µg/mL (≈ 0.483 µM)	1 (≈ 0.966 µM)	1 µg/mL (≈ 0.966 µM)	1 µg/mL (≈ 0.966 µM)
COC1C=COC2(C)Oc3c(C)c(O)c4c(O)c(c(C=NN5CCN(CCCc6cc(-c7ccccc7)no6)CC5)c(O)c4c3C2=O)NC(=O)C(C)=CC=CC(C)C(O)C(C)C(O)C(C)C(OC(C)=O)C1C (stereo not shown) [Compound 27]	0.5 µg/mL (≈ 0.503 µM)	0.5 (≈ 0.503 µM)	0.5 µg/mL (≈ 0.503 µM)	0.5 µg/mL (≈ 0.503 µM)
COC1C=COC2(C)Oc3c(C)c(O)c4c(O)c(c(C=NN5CCN(Cc6noc(-c7ccc(Cl)cc7)n6)CC5)c(O)c4c3C2=O)NC(=O)C(C)=CC=CC(C)C(O)C(C)C(O)C(C)C(OC(C)=O)C1C (stereo not shown) [Compound 25]	0.25 µg/mL (≈ 0.25 µM)	0.5 (≈ 0.499 µM)	0.5 µg/mL (≈ 0.499 µM)	0.25 µg/mL (≈ 0.25 µM)
COC1C=COC2(C)Oc3c(C)c(O)c4c(O)c(c(C=NN5CCN(Cc6onc(-c7ccc(Cl)cc7)c6C(=O)O)CC5)c(O)c4c3C2=O)NC(=O)C(C)=CC=CC(C)C(O)C(C)C(O)C(C)C(OC(C)=O)C1C (stereo not shown) [Compound 19]	0.5 µg/mL (≈ 0.479 µM)	4 (≈ 3.83 µM)	1 µg/mL (≈ 0.957 µM)	0.5 µg/mL (≈ 0.479 µM)
COC1C=COC2(C)Oc3c(C)c(O)c4c(O)c(c(C=NN5CCN(Cc6cc(-c7ccc(F)c(F)c7)no6)CC5)c(O)c4c3C2=O)NC(=O)C(C)=CC=CC(C)C(O)C(C)C(O)C(C)C(OC(C)=O)C1C (stereo not shown) [Compound 6]	0.25 µg/mL (≈ 0.249 µM)	0.5 (≈ 0.499 µM)	0.5 µg/mL (≈ 0.499 µM)	0.25 µg/mL (≈ 0.249 µM)
COC1C=COC2(C)Oc3c(C)c(O)c4c(O)c(c(C=NN5CCN(Cc6ccc(-c7ccc(Cl)cc7)o6)CC5)c(O)c4c3C2=O)NC(=O)C(C)=CC=CC(C)C(O)C(C)C(O)C(C)C(OC(C)=O)C1C (stereo not shown) [Compound 23]	0.25 µg/mL (≈ 0.25 µM)	0.5 (≈ 0.5 µM)	0.25 µg/mL (≈ 0.25 µM)	0.25 µg/mL (≈ 0.25 µM)
COC1C=COC2(C)Oc3c(C)c(O)c4c(O)c(c(C=NN5CCN(Cc6cc(-c7ccc(F)cc7)no6)CC5)c(O)c4c3C2=O)NC(=O)C(C)=CC=CC(C)C(O)C(C)C(O)C(C)C(OC(C)=O)C1C (stereo not shown) [Compound 5]	0.12 µg/mL (≈ 0.122 µM)	0.25 (≈ 0.254 µM)	0.25 µg/mL (≈ 0.254 µM)	0.12 µg/mL (≈ 0.122 µM)
